Reference: US4873253A, “Phenylalanine derivative and proteinase inhibitor” (Okamoto; Shosuke, priority 1987, dated 1989)
Structures can show the parent of a compound that is named as a salt. Where two headings read alike, the source gives them in different places.

Legend:
[1] = molecular target: T1, human plasmin (Homo sapiens, UniProt P00747); assay: Antiplasmin activity: inhibition of S-2251 decomposition; format: biochemical; details: Table 2; substrate S-2251, pH 7.4, 37° C.
Procedure: An inhibitor sample is dissolved in a 0.05 M Tris-hydrochloric acid buffer solution (pH=7.4) to make the total volume to 400 μl. […] Then, 50 μl of a 0.2 casein unit/ml human plasmin is added and the mixture is incubated at a temperature of 37° C. for 4 minutes. Thereafter, the reaction is stopped by adding 50 μl of 50% acetic acid.
Thus, the concentration I50 (μmol) of the inhibitor sample, at which the absorbance is one half (i.e., 1/2) of that obtained in the absence of the inhibitor, is determined.

[2] = molecular target: T1, human plasmin; assay: Antiplasmin activity: inhibition of fibrin decomposition; format: biochemical; details: Table 2, pH 7.4, 37° C., read-out: Plasmin Fibrin I50 (concentration doubling fibrin dissolution time)
Procedure: (i) Determination of inhibition activity for fibrin decomposition
An inhibitor sample is dissolved in a 0.18 M borate-physiological salt buffer solution (pH=7.4) to make the total volume to 600 μl. To this buffer solution, 200 μl of a 0.2% bovine fibrinogen, 100 μl of a 0.3 casein unit/ml human plasmin solution, and 100 μl of a 50 unit/ml bovine thrombin solution, all dissolved in the above-mentioned buffer, are added at a temperature of 37° C. in a constant temperature bath. Then, the dissolution time of the fibrin mass formed above is determined.

[3] = molecular target: T2, bovine thrombin (Bos taurus, UniProt P00735); assay: Antithrombin activity: inhibition of fibrin formation (fibrinogen); format: biochemical
T2 construct: a 0.2 unit/ml bovine thrombin solution
Procedure: (i) Determination of inhibition activity against fibrin formation
An inhibitor sample is dissolved in a 0.18 M borate-physiological salt buffer solution (pH= 7.4) to make the total volume to 500 μl. […] Thus, a coagulation time is determined. The inhibitor concentration I50 (μmol), at which the coagulation time obtained in the absence of the inhibitor is extended twice, is determined.

[4] = molecular target: T3, bovine trypsin (Bos taurus, UniProt P00760); assay: Antitrypsin activity: inhibition of S-2238 decomposition; format: biochemical; details: Table 2; substrate S-2238, pH 8.1, 37° C.; read-out: Trypsin S-2238 I50
T3 sequence (P00760 24-246): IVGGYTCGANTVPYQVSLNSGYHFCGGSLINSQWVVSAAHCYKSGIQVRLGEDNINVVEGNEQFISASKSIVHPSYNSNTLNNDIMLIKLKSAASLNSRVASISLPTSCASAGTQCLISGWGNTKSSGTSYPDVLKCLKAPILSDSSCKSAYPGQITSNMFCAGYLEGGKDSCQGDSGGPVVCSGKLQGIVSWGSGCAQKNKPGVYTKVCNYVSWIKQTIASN
Procedure: Determination of inhibition activity against S-2238 decomposition
An inhibitor sample is dissolved in a 0.05 M Tris-imidazole buffer solution (pH=8.1) and 125 μl of a 1 mM S-2238 solution is added to make the total volume to 1.20 ml. The mixture is incubated at a temperature of 37° C. for 5 minutes in a constant temperature bath. To this mixture, 0.05 ml of bovine trypsin is added and the absorbance, at 405 nm, of the p-nitroaniline formed per minute is determined at a temperature of 37° C. by using the so-called initial velocity method. Thus, the concentration I50 (μmol) of a inhibitor sample, at which the absorbance is one half (i.e., 1/2) of that obtained in the absence of the inhibitor sample, is determined.

[5] = molecular target: human plasma kallikrein (Homo sapiens, UniProt P03952); assay: Anti-plasma kallikrein activity: inhibition of S-2302 decomposition; format: biochemical; details: Table 2; substrate S-2302, pH 7.8, 37° C.; read-out: Plasma Kallikrein S-2302 I50
Procedure: Determination of inhibition activity for S-2302 decomposition
(§1) An inhibitor sample is dissolved in a 0.05 M Tris-hydrochloric acid buffer solution (pH=7.8) to make the total volume to 400 μl. To this solution, 50 μl of a 2 mM S-2302 solution is added and the mixture is incubated at a temperature of 37° C. for 5 minutes in a constant temperature bath. Then, 50 μl of a 0.12 unit/ml human plasma kallikrein is added and the mixture is incubated at a temperature of 37° C. for 5 minutes. Thereafter, 50 μl of 50% acetic acid is added to terminate the reaction. The absorbance of the p-nitroaniline formed in the reaction mixture is measured at 405 nm. Thus, the concentration I50 (μmol) of the inhibitor sample, at which the absorbance is one half (i.e., 1/2) of that obtained in the absence of the inhibitor sample, is determined.

[6] = molecular target: human urokinase (Homo sapiens, UniProt P00749); assay: biochemical; details: read-out: Urokinase S-2444 I50
Procedure: Determination of inhibition activity for S-2444 decomposition
as §1, with “solution (pH=8.8)” for “solution (pH=7.8)”, “a 1” for “a 2”, “mM S-2444” for “mM S-2302”, “a 500” for “a 0.12”, “human urokinase” for “human plasma kallikrein”

[7] = Table 2, bovine fibrinogen, pH 7.4, 37° C., read-out: Thrombin Fibrinogen I50 (concentration doubling coagulation time)
[8] = Table 2, substrate S-2444, pH 8.8, 37° C.

Chain of human plasma kallikrein (P03952 391-638 limits assumed): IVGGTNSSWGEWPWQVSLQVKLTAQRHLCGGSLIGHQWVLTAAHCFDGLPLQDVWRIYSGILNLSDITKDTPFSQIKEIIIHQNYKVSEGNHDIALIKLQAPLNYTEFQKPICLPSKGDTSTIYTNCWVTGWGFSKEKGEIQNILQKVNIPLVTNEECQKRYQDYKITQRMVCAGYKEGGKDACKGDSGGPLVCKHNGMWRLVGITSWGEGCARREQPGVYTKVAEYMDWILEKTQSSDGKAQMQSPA
Chain of human plasma kallikrein (P03952 20-390 limits assumed): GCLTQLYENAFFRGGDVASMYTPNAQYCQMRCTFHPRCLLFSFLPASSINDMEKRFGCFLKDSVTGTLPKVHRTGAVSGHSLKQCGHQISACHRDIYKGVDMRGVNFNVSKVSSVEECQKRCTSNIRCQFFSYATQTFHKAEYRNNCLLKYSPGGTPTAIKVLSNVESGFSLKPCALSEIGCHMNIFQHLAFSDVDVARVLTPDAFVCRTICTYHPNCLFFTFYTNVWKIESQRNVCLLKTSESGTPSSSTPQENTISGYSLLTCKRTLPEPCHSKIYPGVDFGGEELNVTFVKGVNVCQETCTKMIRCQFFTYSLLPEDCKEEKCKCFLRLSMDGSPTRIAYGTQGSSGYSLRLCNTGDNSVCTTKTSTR
T1 sequence (P00747 581-810 limits assumed): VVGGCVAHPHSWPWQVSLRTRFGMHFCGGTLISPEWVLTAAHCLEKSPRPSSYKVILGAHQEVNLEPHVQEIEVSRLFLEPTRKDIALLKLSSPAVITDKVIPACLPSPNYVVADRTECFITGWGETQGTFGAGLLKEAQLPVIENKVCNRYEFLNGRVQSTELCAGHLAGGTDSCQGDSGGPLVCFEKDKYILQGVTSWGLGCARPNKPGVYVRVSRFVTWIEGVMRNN
T1 sequence (P00747 97-580 limits assumed): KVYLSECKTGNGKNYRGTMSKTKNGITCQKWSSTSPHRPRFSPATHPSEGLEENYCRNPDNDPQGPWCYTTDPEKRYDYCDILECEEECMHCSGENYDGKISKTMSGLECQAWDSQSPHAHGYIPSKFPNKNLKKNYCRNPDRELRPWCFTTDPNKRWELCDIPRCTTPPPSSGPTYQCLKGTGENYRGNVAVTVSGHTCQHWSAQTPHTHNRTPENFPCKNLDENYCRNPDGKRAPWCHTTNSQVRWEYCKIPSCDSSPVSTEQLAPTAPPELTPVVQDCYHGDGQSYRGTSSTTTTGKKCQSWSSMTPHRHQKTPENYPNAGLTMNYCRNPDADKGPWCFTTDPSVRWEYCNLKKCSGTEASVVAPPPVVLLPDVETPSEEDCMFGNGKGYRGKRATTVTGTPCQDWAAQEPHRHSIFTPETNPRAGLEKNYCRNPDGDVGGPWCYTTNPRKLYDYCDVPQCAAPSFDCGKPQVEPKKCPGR

| Structure (SMILES) | IC50 [1] | IC50 [2] | IC50 [3, 7] | IC50 [4] | IC50 [5] | IC50 [6, 8] | IC50 [3] | IC50 [6] |
| --- | --- | --- | --- | --- | --- | --- | --- | --- |
| Cc1ccc(NC(=O)C(Cc2cccc(Oc3ccccc3)c2)NC(=O)[C@H]2CC[C@H](CN)CC2)cc1 (stereo partly drawn) [Compound 1] | 46 µM | 15 µM | – | 15 µM | 1.3 µM | – | > 100 µM | > 100 µM |
| CCOC(=O)c1cccc(NC(=O)C(Cc2cccc(Oc3ccccc3)c2)NC(=O)[C@H]2CC[C@H](CN)CC2)c1 (stereo partly drawn) [Compound 3] | 31 µM | 11 µM | > 100 µM | 2.3 µM | 1.2 µM | > 100 µM | – | – |
| NC[C@H]1CC[C@H](C(=O)NC(Cc2cccc(Oc3ccccc3)c2)C(=O)Nc2ccccn2)CC1 (stereo partly drawn) [Compound 6] | 360 µM | 190 µM | – | > 15 µM | 11 µM | > 500 µM | > 500 µM | – |
| NC[C@H]1CC[C@H](C(=O)NC(Cc2cccc(Oc3ccccc3)c2)C(=O)NCC(=O)c2ccccc2)CC1 (stereo partly drawn) [Compound 15] | > 100 µM | > 100 µM | > 100 µM | > 150 µM | > 200 µM | > 100 µM | – | – |
| COC(=O)[C@@H](C)NC(=O)C(Cc1cccc(Oc2ccccc2)c1)NC(=O)[C@H]1CC[C@H](CN)CC1 (stereo partly drawn) [Compound 16] | > 1000 µM | > 1000 µM | > 1000 µM | > 150 µM | > 1000 µM | > 500 µM | – | – |
| NC[C@H]1CC[C@H](C(=O)NC(Cc2cccc(Oc3ccccc3)c2)C(=O)N2CCC(C(=O)O)CC2)CC1 (stereo partly drawn) [Compound 17] | 1000 µM | 570 µM | > 1000 µM | > 150 µM | > 1000 µM | > 500 µM | – | – |
| CCOC(=O)C1CCN(C(=O)C(Cc2cccc(Oc3ccccc3)c2)NC(=O)[C@H]2CC[C@H](CN)CC2)CC1 (stereo partly drawn) [Compound 18] | 430 µM | > 100 µM | > 100 µM | > 150 µM | > 500 µM | > 1000 µM | – | – |

The remaining lines, values ahead:

| IC50 [1] | IC50 [2] | IC50 [3, 7] | IC50 [4] | IC50 [5] | IC50 [6, 8] | IC50 [3] | IC50 [6] | Structure (SMILES) |
| --- | --- | --- | --- | --- | --- | --- | --- | --- |
| 260 µM | 110 µM | > 1000 µM | 25 µM | 5.7 µM | 350 µM | – | – | CCOC(=O)C(Cc1cccc(Oc2ccccc2)c1)NC(=O)[C@H]1CC[C@H](CN)CC1 (mixture of isomers) [Compound 57, N-(trans-4-aminomethylcyclohexylcarbonyl)-3-phenoxy-DL-phenylalanine ethyl ester hydrochloride] |
| > 1000 µM | > 1000 µM | > 1000 µM | > 150 µM | > 1000 µM | > 1000 µM | – | – | NC[C@H]1CC[C@H](C(=O)NC(Cc2cccc(Oc3ccccc3)c2)C(=O)N2CCOCC2)CC1 (stereo partly drawn) [Compound 19] |
| > 100 µM | > 60 µM | > 1000 µM | > 150 µM | > 1000 µM | > 1000 µM | – | – | COC(=O)[C@H]1CCCN1C(=O)C(Cc1cccc(Oc2ccccc2)c1)NC(=O)[C@H]1CC[C@H](CN)CC1 (stereo partly drawn) [Compound 20] |
| 750 µM | 620 µM | > 1000 µM | 8.2 µM | 350 µM | > 500 µM | – | – | COCCCNC(=O)C(Cc1cccc(C(=O)c2ccccc2)c1)NC(=O)[C@H]1CC[C@H](CN)CC1 (stereo partly drawn) [Compound 23] |
| > 1000 µM | 700 µM | > 1000 µM | > 150 µM | > 1000 µM | > 1000 µM | – | – | NC[C@H]1CC[C@H](C(=O)NC(Cc2cccc(C(=O)c3ccccc3)c2)C(=O)N2CCOCC2)CC1 (stereo partly drawn) [Compound 24] |
| > 1000 µM | 400 µM | > 1000 µM | > 150 µM | > 1000 µM | > 1000 µM | – | – | CCOC(=O)C1CCCCN1C(=O)C(Cc1cccc(Oc2ccc(Br)cn2)c1)NC(=O)[C@H]1CC[C@H](CN)CC1 (stereo partly drawn) [Compound 26] |
| 280 µM | 440 µM | > 1000 µM | > 150 µM | > 1000 µM | > 1000 µM | – | – | NC[C@H]1CC[C@H](C(=O)NC(Cc2cccc(Oc3ccc(Br)cn3)c2)C(=O)N2CCOCC2)CC1 (stereo partly drawn) [Compound 27] |
